In patent publication US20150086695A1, “SWEETENER COMPOSITION, SWEETENER PRODUCTS, AND METHODS OF SWEETENING” (Almendra Americas, LLC, priority 2013, published 2015):

Test system: trained expert panelists
Test: Sensory panel scaling of taste attributes on 0-15 scales (formulation study ballot)
Assay type: in vivo, human
Details: 0-15 scale; for Bitterness Intensity @ 2 Min (Bitter2) / Numbing/Tingling Sensation @ 2 Min (Numb/Ting2) / Sweetness Intensity @ 2 Min (Sweet2): at 2 minutes; for Bitterness Intensity @ 2 Min (Bitter2) / Numbing/Tingling Sensation @ 2 Min (Numb/Ting2) / Sweetness Intensity @ 2 Min (Sweet2) / Astringency Intensity (Astring) / Bitterness Intensity (IB) / Mouthfeel (Mfeel) / Numbing/Tingling Sensation (Numb/Ting) / Soapiness (Soap) / Sweetness Intensity Initial (Sweetness) / Sweetness Onset/Appearance Time (Onset): defined calibration rating, Sucrose Reference 10.0% sucrose, REB A Reference 500 PPM, both in 0.1% citric acid
Source text: Tongue numbing can also manifest itself as “tongue tingling”. These non-sugar-like characteristics appear inter-related in the sense that formulation as well as temperature changes affect the perception of several of them. Another taste characteristic of steviol glycosides, particularly those with relatively low levels of REB A, is soapiness, a characteristic that results from the surfactant portion of the molecule. To quantify all of these sensory effects by existing methods would require an expert sensory panel and at least 4 different sensory tests (i.e., C/R Function Determination, Flavor Profile Analysis, Temporal Profile Analysis and Adaptation Profile Analysis). However, to address a need for rapid screening of HP sweetener formulations, Prakash et al., described a scaling technique to quantify all of these sensory percepts in a single test (reference shown below under the table). An improvement of this methodology is described below.
Prior to the evaluation of test samples, all panelists must first calibrate themselves on Sucrose and Reference Samples (e.g., REB A) to ensure that they are able to appropriately scale taste attributes of interest. These Reference Samples are to be available in ample quantities for all experimental sessions. The Sucrose Reference is 10.0% sucrose acidified with 0.1% citric acid. For illustration purposes, an example of a Reference Sample can be a REB A Reference Sample that has 500 PPM REB A in the same system for general formula optimization studies.
Take a ca. 15 mL sample of the Sucrose Reference into the mouth swishing it around vigorously and note all attributes of the sensory experience. After ca. 10 sec, expectorate the sample and immediately rinse vigorously with ca. 15 mL of water, expectorating the rinse water. Over the next 2 minutes, while minimizing tongue movement in the mouth, pay attention to any rebound or intensification in perceived sweetness, bitterness, or numbing/tingling sensation. The intensity of the attribute perceived at 2 minutes is an estimate of its lingering tendency. Upon completion of calibration with the Sucrose Reference, calibration with the REB A Reference is carried out in the same way. The attribute ratings for the Sucrose and REB A References, all on 0-15 scales, are defined as follows: […]
After completion of reference sample calibrations, as well as in follow up of all sample tests, rinse the mouth vigorously with ca. 15 mL portions of the Sucrose Reference solution and two ca. 15 mL portions of water in effort to get the sensory system back to baseline. […]

| Compound | Bitterness Intensity @ 2 Min (Bitter2) | Numbing/Tingling Sensation @ 2 Min (Numb/Ting2) | Sweetness Intensity @ 2 Min (Sweet2) | Astringency Intensity (Astring) | Bitterness Intensity (IB) | Mouthfeel (Mfeel) | Numbing/Tingling Sensation (Numb/Ting) | Soapiness (Soap) | Sweetness Intensity Initial (Sweetness) | Sweetness Onset/Appearance Time (Onset) | scores on all lingering attributes (Example 9, REBA100 500 mg/L in 0.1% citric acid, two panelists) |
| --- | --- | --- | --- | --- | --- | --- | --- | --- | --- | --- | --- |
| C=C1C[C@@]23CC[C@H]4[C@@](C)(CCC[C@@]4(C)C(=O)O[C@@H]4O[C@H](CO)[C@@H](O)[C@H](O)[C@H]4O)[C@@H]2CC[C@]1(O[C@@H]1O[C@H](CO)[C@@H](O)[C@H](O[C@@H]2O[C@H](CO)[C@@H](O)[C@H](O)[C@H]2O)[C@H]1O[C@@H]1O[C@H](CO)[C@@H](O)[C@H](O)[C@H]1O)C3 [REB A100, rebaudioside A] | 2 | 2 | 3 | 0 | 3 | 0 | 0 | 1 | 10 | 3 |  |
| OC[C@H]1O[C@@](CO)(O[C@H]2O[C@H](CO)[C@@H](O)[C@H](O)[C@H]2O)[C@@H](O)[C@@H]1O [Sucrose, sucrose] | 0 | 0 | 0 | 0 | 0 | 10 | 0 | 0 | 10 | 0 | 0 |
